According to patent EP2014284A1, “Pharmaceutical compositions and uses” (NOVARTIS AG, priority 2007, dated 2009):
Marks after values point to notes of the source that are not given here.

System: hypertensive OA patients
From the text: Method: A 4-week, multicenter, randomized, double-blind, double-dummy, parallel group study of hypertensive OA patients aged ≥50 years (office BP ≤140/90 mmHg) on stable antihypertensive treatment. […] The primary outcome measure was the change from baseline (BL) at Week 4 in 24-hour mean ambulatory systolic BP (MASBP) in the intent-to-treat (ITT) population using ANCOVA. The secondary analyses included 24-hour mean ambulatory diastolic BP (MADBP […]. In addition, a post-hoc subgroup analysis was performed to evaluate the primary and secondary analysis at Week 4 (using ANCOVA) for patients exclusively on ACE inhibitors as antihypertensive drug.

[1] = change from baseline, lumiracoxib (n=140) vs ibuprofen (n=132), patients exclusively on ACE-inhibitors, p<0.001

SMILES	increase in MASBP (change from BL at Week 4, 24-hour MASBP, ibuprofen 600 mg tid) [mmHg]	decrease in MASBP (change from BL at Week 4, 24-hour MASBP, lumiracoxib 100 mg od) [mmHg]	24 h MADBP Difference in LSM (95% CI) [1]	24 h MASBP Difference in LSM (95% CI) [1]	Clinically relevant increase (>= 5 mm Hg increase in 24 h MADBP and/or >= 10 mm Hg increase in 24h MASBP), number of patients (human, in vivo, 4 weeks) [patients]	Clinically relevant increase (>= 5 mm Hg increase in 24 h MADBP and/or >= 10 mm Hg increase in 24h MASBP), share of patients (human, in vivo, 4 weeks) [%]	24-hour MADBP, estimated treatment difference (lumiracoxib 100 mg od vs ibuprofen 600 mg tid, Week 4, [95% CI: -2.7, -1.3], p<0.001) [mmHg]
CC(C)Cc1ccc(C(C)C(=O)O)cc1 (stereo not shown) [ibuprofen]	2.2						
Cc1ccc(Nc2c(F)cccc2Cl)c(CC(=O)O)c1 [lumiracoxib, 5-methyl-2-(2'-chloro-6'-fluoroanilino)phenylacetic acid]		2.7	-3.9 (-5.1,-2.7)*	-7.5 (-9.6, -5.5)*	13	9.3	-2
